Earlier results in patent US9867391B2, “Accelerating muscle recovery after immobilization-induced muscle atrophy” (NESTEC S.A., priority 2011, dated 2018).

Test system: muscle protein synthesis
Conditions: Kastanos et al. 2006

CC(C)C[C@H](N)C(=O)O [leucine]
muscle protein synthesis in young subjects (leucine added to the diet, young subjects): did not increased muscle protein synthesis | muscle protein synthesis in elderly (same leucine supplementation, elderly): efficient
